Each compound was assayed against T1, human GPBAR1 receptor (Homo sapiens, UniProt Q8TDU6) (assay: functional cAMP assay in CHO-dhfr(minus) cells expressing human GPBAR1 receptors). Conditions: human EC50, functional cAMP assay, 30 min at 30° C.
T1 construct: expressed in transfected cells
T1 sequence (Q8TDU6 1-330): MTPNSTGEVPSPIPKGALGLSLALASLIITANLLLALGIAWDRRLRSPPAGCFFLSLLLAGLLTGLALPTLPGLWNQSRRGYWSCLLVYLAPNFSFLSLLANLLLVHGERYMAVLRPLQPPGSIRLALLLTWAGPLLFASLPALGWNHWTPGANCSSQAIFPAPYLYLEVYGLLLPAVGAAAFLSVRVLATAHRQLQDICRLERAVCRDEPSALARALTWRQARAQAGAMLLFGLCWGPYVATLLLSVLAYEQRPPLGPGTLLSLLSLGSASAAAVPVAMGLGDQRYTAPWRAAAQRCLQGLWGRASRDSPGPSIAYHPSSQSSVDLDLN
Type: cell-based
Method in brief: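 Agonist cAMP read-out: stable GPBAR1 CHO-dhfr− clone, 30 min compound exposure at 30° C following 30 min IBMX (1 mM) preincubation in Krebs Ringer bicarbonate. Time-resolved energy-transfer detection gives EC50; parental CHO cells serve as counter-screen.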
In the case of `O=C(O)c1cccc(-c2ccc(C(C/C(=N\O)c3ccncc3)c3ccccc3)cc2)c1` (stereo not drawn) [Example 76, 4′-{3-[(E)-Hydroxyimino]-1-phenyl-3-pyridin-4-yl-propyl}-biphenyl-3-carboxylic acid], the EC50 is reported as 490 nM. Compound `O=C(O)c1ccc(-c2ccc(C(C/C(=N\O)c3ccncc3)c3ccccc3)cc2)cc1` (stereo not drawn) [Example 77, 4′-{3-[(E)-Hydroxyimino]-1-phenyl-3-pyridin-4-yl-propyl}-biphenyl-4-carboxylic acid] has an EC50 of 269 nM. For `Cc1cc(/C(C[C@H](c2ccc(-c3ccc(C(=O)NCC(=O)O)cc3)cc2)c2ccccc2C)=N/O)ccn1` [Example 96, ({4′-[(R)-3-[(E)-Hydroxyimino]-3-(2-methyl-pyridin-4-yl)-1-o-tolyl-propyl]-biphenyl-4-carbonyl}-amino)-acetic acid], the EC50 was 3 nM. Compound `Cc1cc(/C(CC(c2cccc(-c3ccc(C(=O)O)c(F)c3)c2)c2ccccc2C)=N/O)ccn1` (stereo not drawn) [Example 101, 3-Fluoro-3′-[3-[(E)-hydroxyimino]-3-(2-methyl-pyridin-4-yl)-1-o-tolyl-propyl]-biphenyl-4-carboxylic acid] has an EC50 of 1700 nM. `Cc1cc(/C(CC(c2cccc(-c3ccc(C(=O)O)cc3)c2)c2ccccc2C)=N/O)ccn1` (stereo not drawn) [Example 103, (E)-3′-[3-[Hydroxyimino]-3-(2-methyl-pyridin-4-yl)-1-o-tolyl-propyl]-biphenyl-4-carboxylic acid] gave an EC50 of 589 nM. In the case of `Cc1cc(/C(CC(c2cccc(CC(=O)O)c2)c2ccccc2C)=N/O)ccn1` (stereo not drawn) [Example 105, {3-[3-[(E)-Hydroxyimino]-3-(2-methyl-pyridin-4-yl)-1-o-tolyl-propyl]-phenyl}-acetic acid], the EC50 is reported as 1020 nM. With `Cc1cc(/C(CC(c2cccc(-c3cccc(C(=O)NCC(=O)O)c3)c2)c2ccccc2C)=N/O)ccn1` (stereo not drawn) [Example 108, ({3′-[3-[(E)-Hydroxyimino]-3-(2-methyl-pyridin-4-yl)-1-o-tolyl-propyl]-biphenyl-3-carbonyl}-amino)-acetic acid] the EC50 was 76 nM. Compound `Cc1ccccc1C(C/C(=N\O)c1ccn(C)c(=O)c1)c1ccc(Br)cc1` (stereo not drawn) [Example 110, 4-{3-(4-Bromo-phenyl)-1-[(E)-hydroxyimino]-3-o-tolyl-propyl}-1-methyl-1H-pyridin-2-one] has an EC50 of 116 nM. With `Cc1cc(/C(CC(c2ccc(Br)cc2)c2ncccc2C)=N/O)ccn1` (stereo not drawn) [Example 116, (E)-3-(4-Bromo-phenyl)-3-(3-methyl-pyridin-2-yl)-1-(2-methyl-pyridin-4-yl)-propan-1-one oxime] the EC50 was 5 nM. Compound `Cc1cc(/C(CC(c2ccc(-c3ccc(C(=O)O)cc3)cc2)c2ncccc2C)=N/O)ccn1` (stereo not drawn) [Example 117, (E)-4′-[3-[Hydroxyimino]-3-(2-methyl-pyridin-4-yl)-1-(3-methyl-pyridin-2-yl)-propyl]-biphenyl-4-carboxylic acid] has an EC50 of 102 nM. `Cc1ccccc1C(C/C(=N\O)c1cc(Cl)nc(Cl)c1)c1ccc(Br)cc1` (stereo not drawn) [Example 120, (E)-3-(4-Bromo-phenyl)-1-(2,6-dichloro-pyridin-4-yl)-3-o-tolyl-propan-1-one oxime] was tested, and the EC50 was 184 nM. `Cc1cc(/C(CC(c2cccc(Br)c2)c2ccccc2C)=N/O)cc(F)n1` (stereo not drawn) [Example 122, (E)-3-(3-Bromo-phenyl)-1-(2-fluoro-6-methyl-pyridin-4-yl)-3-o-tolyl-propan-1-one oxime] showed an EC50 of 201 nM. For `Cc1ccccc1C(C/C(=N\O)c1cncc(Br)c1)c1cccc(Br)c1` (stereo not drawn) [Example 123, (E)-3-(3-Bromo-phenyl)-1-(5-bromo-pyridin-3-yl)-3-o-tolyl-propan-1-one oxime], the EC50 was 4540 nM. `Cc1cnc(F)c(/C(CC(c2ccc(Br)cc2)c2ccccc2C)=N/O)c1` (stereo not drawn) [Example 128, (E)-3-(4-Bromo-phenyl)-1-(2-fluoro-5-methyl-pyridin-3-yl)-3-o-tolyl-propan-1-one oxime] showed an EC50 of 650 nM. `Cc1cc(/C(CC(c2ccc(-c3ccc(C(=O)O)c(F)c3)cc2)c2ccccc2C)=N/O)ccn1` (stereo not drawn) [Example 131, 3-Fluoro-4′-[3-[(E)-hydroxyimino]-3-(2-methyl-pyridin-4-yl)-1-o-tolyl-propyl]-biphenyl-4-carboxylic acid] gave an EC50 of 14 nM.

From patent US8765730B2 (Hoffmann-La Roche Inc, priority 2010, dated 2014)
